Assay results reported in patent publication US9221822B2, “Thiazolopyrimidine modulators as immunosuppressive agents” (Katholieke Universiteit Leuven, K.U.Leuven R&D, priority 2009, dated 2015).

What follows are compounds tested on Human peripheral blood mononuclear cells (PBMCs) as Responder cells, RPMI 1788 Stimulator cells (assay: Mixed Lymphocyte Reaction (MLR) test). Conditions: Homo sapiens, RPMI-1788, lowest concentration giving 50% inhibition of the MLR; 6 days coculture, 3H-thymidine incorporation.
Assay type: cell-based
Procedure: Human peripheral blood mononuclear cells (PBMCs) were isolated from buffy coats, obtained from healthy blood donors by Ficoll (Lymphoprep, Axis-Shield PoC AS, Oslo, Norway) density-gradient centrifugation. The cells at the Ficoll-plasma interface were washed three times and used as “Responder” cells. RPMI 1788 (ATCC, N^o CCL-156) cells were treated with mitomycin C (Kyowa, Nycomed, Brussel, Belgium) and used as “Stimulator” cells. Responder cells (0.12×10^6), Stimulator cells (0.045×10^6) and compounds (in different concentrations) were cocultured for 6 days in RPMI 1640 medium (BioWhittaker, Lonza, Belgium) supplemented with 10% fetal calf serum, 100 U/ml Geneticin (Gibco, LifeTechnologies, UK). Cells were cultured in triplicate in flat-bottomed 96-well microtiter tissue culture plates (TTP, Switzerland). After 5 days, cells were pulsed with 1 μCi of methyl-^3H thymidine (MP Biomedicals, USA), harvested 18 h later on glass filter paper and counted. Proliferation values were expressed as counts per minute (cpm), and converted to % inhibition with respect to a blank MLR test (identical but without added compound). […]
In the case of `Nc1nc(N2CCN(c3nccs3)CC2)c2nc(-c3ccc(F)cc3)[nH]c2n1` [Example 409, 8-(4-fluorophenyl)-6-(4-(thiazol-2-yl)piperazin-1-yl)-9H-purin-2-amine], the IC50 is reported as 7.47 µM. Compound `Nc1nc(N2CCN(C(=O)COc3cccc([N+](=O)[O-])c3)CC2)c2nc(CCc3ccc(F)cc3)sc2n1` [Example 131, 5-amino-2-[2-(4-fluorophenyl)ethyl]-7-(4-[2-(3-nitrophenoxy)acetyl]piperazin-1-yl)-thiazolo[5,4-d]pyrimidine] has an IC50 of 3.25 µM. With `CC(C)(Oc1ccc(Cl)cc1)C(=O)N1CCN(c2nc(N)nc3sc(-c4ccccc4)cc23)CC1` [Example 373, 1-(4-(2-amino-6-phenylthieno[2,3-d]pyrimidin-4-yl)piperazin-1-yl)-2-(4-chlorophenoxy)-2-methylpropan-1-one] the IC50 was 6.92 µM. `Nc1nc(N2CCN(C(=O)COc3ccc(Cl)cc3)CC2)c2nc(SCc3ccccc3)[nH]c2n1` [Example 426, 1-(4-(2-amino-8-(benzylthio)-9H-purin-6-yl)piperazin-1-yl)-2-(4-chlorophenoxy)ethanone] was tested, and the IC50 was 3.28 µM. With `COCc1nc2c(N3CCN(C(=O)COc4ccc(Cl)cc4)CC3)nc(N)nc2o1` [Example 186, 5-amino-7-[4-(4-chlorophenoxyacetyl)piperazin-1-yl]-2-methoxylmethyloxazolo[5,4-d]pyrimidine] the IC50 was 1.83 µM. Compound `Nc1nc(N2CCN(C(=O)Cc3cccs3)CC2)c2nc(-c3ccc(F)cc3)[nH]c2n1` [Example 403, 1-(4-(2-amino-8-(4-fluorophenyl)-9H-purin-6-yl)piperazin-1-yl)-2-(thiophen-2-yl)ethanone] has an IC50 of 7.08 µM. `Nc1nc(N2CCN(C(=O)COc3ccc(Cl)cc3)CC2)c2nc(CCOc3ccc(F)cc3)sc2n1` [Example 48, 1-(4-(5-amino-2-(2-(4-fluorophenoxy)ethyl)thiazolo[5,4-d]pyrimidin-7-yl)piperazin-1-yl)-2-(4-chlorophenoxy)ethanone] showed an IC50 of 3.54 µM. `Nc1nc(N2CCN(c3ccc(Cl)cc3)CC2)c2nc(-c3ccc(F)cc3)[nH]c2n1` [Example 414, 6-(4-(4-chlorophenyl)piperazin-1-yl)-8-(4-fluorophenyl)-9H-purin-2-amine] was tested, and the IC50 was 3.87 µM. For `Nc1nc(N2CCN(C(=O)Nc3ccc(Cl)cc3)CC2)c2nc(-c3cccnc3)sc2n1` [Example 277, 4-(5-amino-2-(pyridin-3-yl)thiazolo[5,4-d]pyrimidin-7-yl)-N-(4-chlorophenyl)piperazine-1-carboxamide], the IC50 was 0.024 µM. Compound `CCOc1nc(N)nc2sc(Cc3ccc(F)cc3)nc12` [Example 31, 7-ethoxy-2-(4-fluorobenzyl)thiazolo[5,4-d]pyrimidin-5-amine] has an IC50 of 9.7 µM. `Nc1nc(N2CCN(CC(=O)N3CCCC3)CC2)c2nc(-c3ccc(F)cc3)[nH]c2n1` [Example 410, 2-(4-(2-amino-8-(4-fluorophenyl)-9H-purin-6-yl)piperazin-1-yl)-1-(pyrrolidin-1-yl)ethanone] was tested, and the IC50 was over 10 µM. Compound `Nc1nc(N2CCN(C(=O)COc3ccc(Cl)cc3)CC2)c2nc(Cc3ccc(Cl)cc3)sc2n1` [Example 122, 5-amino-7-[4-(4-chlorophenoxyacetyl)piperazin-1-yl]-2-(4-chlorophenylmethyl)thiazolo[5,4-d]pyrimidine] has an IC50 of over 10 µM. With `CC(C)N(C(=O)N1CCN(c2nc(N)nc3sc(-c4ccc(F)cc4)cc23)CC1)C(C)C` [Example 347, 4-(2-amino-6-(4-fluorophenyl)thieno[2,3-d]pyrimidin-4-yl)-N,N-diisopropylpiperazine-1-carboxamide] the IC50 was 8.2 µM.

Same assay, conditions: lowest concentration giving 50% inhibition of the MLR; 6 days coculture, 3H-thymidine incorporation
`COc1ccc(OCC(=O)N2CCN(c3nc(N)nc4sc(-c5ccc(Cl)cc5)nc34)CC2)cc1` [Example 280, 1-(4-(5-amino-2-(4-chlorophenyl)thiazolo[5,4-d]pyrimidin-7-yl)piperazin-1-yl)-2-(4-methoxyphenoxy)ethanone] gave an IC50 of over 10 µM. Compound `COc1ccc(OCC(=O)N2CCN(c3nc(N)nc4sc(-c5ccc(Cl)cc5)nc34)CC2)cc1` [Example 270, 1-(4-(5-amino-2-(4-chlorophenyl)thiazolo[5,4-d]pyrimidin-7-yl)piperazin-1-yl)-2-(4-methoxyphenoxy)ethanone] has an IC50 of 0.15 µM.
